Laboratory results taken from ChEMBL document CHEMBL1157539, “Thousands of chemical starting points for antimalarial lead identification” (Nature, 2010).

The compounds below were run on Plasmodium falciparum (assay: GSK_TCMDC: Inhibition of Plasmodium falciparum 3D7 in whole erythrocytes, using parasite LDH activity as an index of growth.). Settings: Plasmodium falciparum, 3D7.
Format: functional, organism-based

SMILES | XC50 [nM]
CS(=O)(=O)Cc1ccc(Nc2nccc(N3CCCc4cc(NC(=O)Nc5cccc(C(F)(F)F)c5)ccc43)n2)cc1 | 148
CNCCNCc1ccc(-c2cccc(-c3nc4cc(C(F)(F)F)ccc4[nH]3)c2)cc1 | 628
Cc1ccc2c(NC(=O)Nc3ccc(N(C)C)cc3)cc(C)nc2c1 | 820
CCN(CC)CCN(Cc1ccc(-c2ccc(C(F)(F)F)cc2)cc1)C(=O)Cn1c(SCc2ccc(F)cc2)nc(=O)c2sccc21 | 987
NCc1ccc(-c2ccc3c(N)nccc3c2)cc1 | 885
O=C(Nc1cccc(CN2CCCN(Cc3cccc(O)c3)CC2)c1)c1ccc2ccccc2c1 | 786
COc1ccc(Nc2nc(N/N=C/c3cc(Br)ccc3O)nc(Nc3ccc([N+](=O)[O-])cc3)n2)cc1 | 222
CCN1CCC(N(Cc2ccc(-c3ccc(C(F)(F)F)cc3)cc2)C(=O)Cn2c(SCc3ccc(F)cc3)nc(=O)c3c2CCC3)CC1 | 991
O=C(N[C@@H](Cc1ccccc1)C(=O)NC1CCCCC1)c1ccc(O)c(-c2ccc(Cl)c(Cl)c2)c1 | 231
COc1ccc(NC(=O)Nc2cc(C)nc3cccnc23)cc1Cn1ccnc1 | 736
COc1cccc(C(=O)Nc2ccc(-c3nc4ccccc4[nH]3)cc2)c1 | 802
CNCCNCc1ccc(-c2ccc(-c3nc4ccccc4[nH]3)s2)cc1 | 865
O=C(NC1CC1)c1ccc(Nc2nccc(-c3c(-c4cccc(NC(=O)c5c(F)cccc5F)c4)nn4ccccc34)n2)cc1 | 411
Cc1cccc2nc(-c3ccc(-c4cccc(NC(=O)NCc5cccc(F)c5)c4)cc3)[nH]c12 | 853
CCOc1cc2c(cc1OCC)C(c1ccc(O)c(Cl)c1)NCC2 (stereo not given) | 790
Cc1[nH]cnc1-c1cccc(NC(=O)c2cc3ccccc3s2)c1 | 210
Cc1cc(N[C@@H](Cc2ccccc2)C(=O)NCc2cccc(F)c2)nc(NCC2CCCCC2)n1 | 855
Cc1ncccc1C(=O)Nc1cccc(-c2cccc(-c3nc4cccc(C)c4[nH]3)c2)c1 | 956
CN(CCCN(C)c1cc(NC(=O)c2cccc(F)c2)ccn1)Cc1cccc(O)c1 | 1920
O=C(/C=C/c1ccc(Cl)c(Cl)c1)NCCCCCN1CCCN(C(=O)Nc2ccc(C(F)(F)F)cc2)CC1 | 688
CCCc1ccc(C(=O)N2C(c3nccs3)C(C(N)=O)CC2(CC(C)C)C(=O)O)cc1 (stereo not given) | 156
Cn1cncc1CNCc1ccc(-c2cccc(-c3nc4ccccc4[nH]3)c2)cc1 | 234
COc1ccc(CCn2c(=N)c(C(=O)NC3CCCC3)cc3c(=O)n4ccccc4nc32)cc1 | 678
N#Cc1ccc(-c2cnc3ccc(NCc4ccc(S(N)(=O)=O)cc4)nn23)cc1 | 785
COc1ccc(-c2nc3c(N)nc(N)nc3nc2C(C)C)cc1 | 188

SMILES | XC50 [nM]
Cc1ccc(NC(=O)c2ccc(CN3CCCN(CC4CCCCC4)CC3)cc2)cc1C | 1020
c1ccc2[nH]c(Nc3ccc(Nc4nc5ccccc5[nH]4)cc3)nc2c1 | 783
Cc1cccc2nc(-c3ccc(-c4ccc(NC(=O)CN5CCN(C)CC5)cc4)s3)[nH]c12 | 1020
Cn1nccc1C(=O)NCCNCc1ccc(-c2ccc(-c3nc4ccccc4[nH]3)s2)cc1 | 560
CC1CN(CCCn2c3ccccc3c3ccc(C(=O)CCCN(C)C)cc32)CC(C)N1 (stereo not given) | 809
CO/C(=C\C=C\c1cc2cc(Cl)c(Cl)cc2[nH]1)C(=O)NCCCNCCN(C)c1ccccc1 | 784
NC1=NC(c2ccccc2)N(OCc2ccccc2)C(N)=N1 (stereo not given) | 43.1
COc1cccc2cc(C(=O)N[C@@H](CC(C)C)C(=O)NC3CC[C@@H](C)N(C(=O)Nc4ccncc4)CC3=O)oc12 (stereo not given in full) | 292
Cc1cc(N[C@@H](CC(C)C)C(=O)NCCc2ccccc2)nc(NCCc2cccs2)n1 | 1200
COc1cc(CNC2Cc3ccccc3C2)ccc1Oc1ccc2nc[nH]c2c1 | 949
Cc1sc(CNCCCNc2cc(=O)c3ccccc3[nH]2)c(C(F)(F)F)c1C | 734
Cc1nn(CC(O)Cn2c3ccc(Br)cc3c3cc(Br)ccc32)c(C)c1Br (stereo not given) | 713
COc1cc(N(Cc2ccccc2C)S(=O)(=O)Cc2ccccc2[N+](=O)[O-])c(OC)cc1Cl | 1010
O=C1Nc2ccccc2/C1=N/NC(=S)N1CCOCC1 | 910
Fc1cccc(C=NNc2ccnc3cc(Cl)ccc23)c1 | 528
CCC(C)NS(=O)(=O)c1ccc2nc(Nc3cccc(SC)c3)n(C(C)C(C)C)c2c1 (stereo not given) | 503
O=C(Nc1ccc2c(c1)CCN2C1CCN(Cc2cccc3cc[nH]c23)C1)c1ccco1 (stereo not given) | 1210
O=C(NCCN1CCCC1)c1ccc(-c2ccc(-c3nc4cc(C(F)(F)F)ccc4[nH]3)s2)cc1 | 752
N#Cc1cccc(C(=O)Nc2ccc(-c3nc4ccccc4[nH]3)cc2)c1 | 541
CCN1CCN(Cc2ccc3nc(-c4cc(C)n(Cc5cc(Cl)ccc5OCc5ccccc5)n4)[nH]c3c2)CC1 | 770
CN1CCCc2ccc(NC(=O)Nc3ccc(Cl)c(Cl)c3)cc2C1 | 603
CC1CNC(c2cccc(NC(=O)Nc3cccc(C4=NC(C)CN4)c3)c2)=N1 (stereo not given) | 359
Nc1nc(N)c2c(ccc3c2ccn3C2C=CCCC2)n1 (stereo not given) | 132
Nc1c(-c2ccc(C(=O)NCCNCc3ccccc3)cc2)cnn1-c1ccc(C(F)(F)F)cc1 | 1160
Nc1ncc(OC2CCCCC2)c(N)n1 | 1070

SMILES | XC50 [nM]
FC(F)(F)c1ccc2[nH]c(-c3ccc(-c4ccc(CNCCN5CCNCC5)cc4)cc3)nc2c1 | 1120
O=C(NC1CCN(Cc2ccccc2)CC1)c1ccc(-c2nc3cc(Cl)c(Cl)cc3[nH]2)s1 | 308
CC(C)c1ccc(Nc2nc(NCCc3c[nH]cn3)nc(NCc3ccccc3)n2)cc1 | 687
CNC(=O)c1ccc2nc(-c3ccc(-c4ccccc4)cc3)n(CC3CCN(CC4CCCC4)CC3)c2c1 | 42.5
O=c1cc(NCCC(CNCCc2ccccc2)NCc2cc(Br)cc(Br)c2)[nH]c2ccccc12 (stereo not given) | 514
O=C(/C=C/c1ccc(Cl)c(Cl)c1)NCCCCCN1CCC(NC(=O)NC2CCCCCC2)CC1 | 464
COc1ccc2nccc([C@@H](O)CN3CCC(NCc4cnc5snnc5c4)C(F)C3)c2c1 (stereo not given in full) | 1350
CCOC(=O)N1CCN(CCCCNc2c3ccc(Cl)cc3nc3ccc(OC)cc23)CC1 | 121
CC(C)(C)CCN1CCC(NC(=O)c2ccc(-c3cccc(C(F)(F)F)c3)s2)CC1 | 755
CCN(CC)CCNC(=O)c1ccc(Nc2ncc([N+](=O)[O-])c(Nc3ccccc3OC)n2)cc1 | 144
CC(=O)C1(c2ccccc2)CCN(CCC2(c3ccc(Cl)c(Cl)c3)CN(C(=O)c3cccc(Cl)c3)CCO2)CC1 (stereo not given) | 854
CCCCCCCCn1c2c(c(=N)c3c1CCC3)CCCC2 | 109
CC[C@H](NC(=O)c1c(CN2CCC(N3CCCCC3)CC2)c(-c2ccccc2)nc2cc(O)ccc12)c1ccccc1 | 1370
CCc1c(CCNCCCCCCNCCc2ccc([N+](=O)[O-])cc2)ccc(O)c1O | 783
Cn1ncc2c3c(CCN4CCC(NCc5ccc6c(c5)NC(=O)CO6)CC4)c(Cl)cnc3ccc21 | 488
CCCC1N=C(N)N=C(N)N1c1ccccc1 (stereo not given) | 823
CCOc1c(C)cc(C(F)(F)F)cc1CNCCCNc1cc(=O)c2ccccc2[nH]1 | 161
Cc1cc(Cl)c(S(=O)(=O)N2CCc3ccccc32)cc1OCC(=O)NC1CCCCC1 | 302
Oc1cccc(Nc2nc(NCC3CCCO3)c3ccccc3n2)c1 (stereo not given) | 812
COc1ccccc1NC(=O)Nc1ccc(-c2cccc(-c3nc4ccccc4[nH]3)c2)cc1 | 641
Cn1nccc1C(=O)NCCNCc1ccc(-c2ccc(-c3nc4cc(F)ccc4[nH]3)cc2)cc1 | 297
O=C(OCc1ccccn1)c1nc2ccccc2[nH]1 | 793
Cc1cc(=O)c2cc(-c3ccc(OC(F)(F)F)cc3)ccc2[nH]1 | 476
CCc1ccc(C2CCN(CCCCNC(=O)c3ccc(-c4ccc(Cl)cc4)cc3)CC2)c(O)c1 | 891
OCCN1CCN(C(=S)NC2CCCCC2)CC1 | 1100

SMILES | XC50 [nM]
CNCCCn1c(N(C)C)nc2cc(-n3cnc4cc(-c5ccc(Cl)cc5)sc4c3=O)ccc21 | 1140
CN1CCCc2ccc(NC(=O)C=Cc3ccc(-c4ccc(F)cc4F)o3)cc2C1 | 522
COc1ccc(S(=O)(=O)NCC2CCCN(CCCCCNC(=O)/C=C/c3ccc(Cl)c(Cl)c3)C2)cc1 (stereo not given) | 1060
CCN(CC)S(=O)(=O)c1cc(-c2ccc(=O)n(CC(=O)c3ccc(C)cc3)n2)ccc1C | 895
Cc1ccc2nc(C)n(C3CCN(C(=O)Cc4ccccc4C)CC3)c2c1 | 243
COC(=O)c1ccc(CC(C)NCC(O)c2cccc(OC(F)(F)F)c2)cc1 (stereo not given) | 863
CCCCCNc1ccnc2cc(Cl)ccc12 | 509
CCOC(=O)NCCSC(C)(C)[C@H](NC(=O)[C@H](Cc1cc2ccccc2s1)[C@H](CC)N(O)C=O)C(=O)Nc1nccs1 | 296
OCC1CCN(Cc2ccc(-c3cccc(-c4nc5ccccc5[nH]4)c3)cc2)CC1 | 813
CS(=O)(=O)CCNCc1ccc(-c2ccc3c(Nc4ccc(Oc5ccccn5)cc4)ccnc3c2)o1 | 715
CCC(C)c1cccc(C(C)CC)c1OCCCON1C(N)=NC(N)=NC1(C)C (stereo not given) | 20
CC(C)n1cc2c(ccc3nc(N)nc(N)c32)n1 | 36.9
C(=NN=c1cc(-c2ccccc2)[nH]c2ccccc12)c1cccnc1 | 1230
CN1CCN(Cc2nc(-c3ccc4c(Nc5ccc(Oc6ccccc6)cc5)ccnc4c3)cs2)CC1 | 310
N=C(N)c1cc(Cl)cc(NC(=O)Nc2cc(Cl)cc(C(=N)N)c2)c1 | 719
COc1ccc(-n2ccnc2)cc1CNC1CCN(CC2Cn3c(=O)ccc4ccc(F)c2c43)CC1 (stereo not given) | 927
O=C(/C=C/c1ccccc1O)N1CCC(CCN2CCC(c3c[nH]c4ccccc34)CC2)CC1 | 1340
CCC(ON1C(N)=NC(N)=NC1(C)C)c1ccccc1 (stereo not given) | 33.5
COc1ccc(-c2ccc(NC(=O)c3ccc(C#N)cc3)cc2)cc1CNC(C)C | 529
COc1cccc(CCNC(C)Cc2ccc(OCCCCOc3ccccc3)cc2)c1 (stereo not given) | 741
Cc1cccc2nc(-c3cccc(-c4cccc(NC(=O)c5ccoc5)c4)c3)[nH]c12 | 219
COc1ccc2[nH]ccc(=NN=Cc3ccncc3)c2c1 | 584
Cc1cc(NCCC(=O)NCc2cccc(F)c2)nc(Nc2ccccc2)n1 | 1050
COc1ccc(-c2cccc(NC(=O)c3cccc(F)c3)c2)cc1CN1CCCN(C)CC1 | 603
COc1ccc2nc(-c3cccc(C)n3)nc(Nc3ccncc3)c2c1 | 669
